pIC50: −log10 of the molar value. “And” between values parts separate entries of the source, which are not always exact repeats. Equal values may be shown once.
System: MCF7 multi-cell spheroids with HUVEC/MSC, viability
Assay: Anticancer human tumor MCF7 cell line growth inhibition [IpAb];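 note: spheroids exposed to agents for seven days before readout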
Settings: for viability, T/C: stronger effect = lower value
In short: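 Combinations with ipatasertib or abemaciclib were tested on tumour spheroids holding HUVEC (25%) and MSC (15%) alongside 60% malignant cells. Top concentration was at or near clinical Cmax (10 microM if undefined), descending in half-log steps.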

[1] = curve of first compound, second compound 0.1 µM
[2] = curve of first compound, second compound 0.316 µM
[3] = curve of first compound, second compound 1 µM
[4] = curve of first compound, second compound 3.16 µM
[5] = curve of first compound, second compound 10 µM
[6] = second compound 0.1 µM, first compound 0.0316 µM
[7] = second compound 0.1 µM, first compound 0.1 µM
[8] = second compound 0.316 µM, first compound 0.0316 µM
[9] = second compound 0.316 µM, first compound 0.1 µM
[10] = second compound 1 µM, first compound 0.0316 µM
[11] = second compound 1 µM, first compound 0.1 µM

SMILES: CC(=O)c1c(C)c2cnc(Nc3ccc(N4CCNCC4)cn3)nc2n(C2CCCC2)c1=O + CC(C)NCC(C(=O)N1CCN(c2ncnc3c2C(C)CC3O)CC1)c1ccc(Cl)cc1
- pIC50 [1]: < 6.52
- pIC50 [2]: < 6.52
- pIC50 [3]: 6.56
- pIC50 [4]: 7.63
- pIC50 [5]: > 9.02
- viability, T/C (second compound 0.1 µM, first compound 0.000949 µM): 96.3%
- viability, T/C (second compound 0.1 µM, first compound 0.003 µM): 100%
- viability, T/C (second compound 0.1 µM, first compound 0.00949 µM): 97.1%
- viability, T/C (second compound 0.1 µM, first compound 0.03 µM): 90.7%
- viability, T/C (second compound 0.1 µM, first compound 0.0949 µM): 89.6%
- viability, T/C (second compound 0.1 µM, first compound 0.3 µM): 86.8%
- viability, T/C (second compound 0.316 µM, first compound 0.000949 µM): 80.9%
- viability, T/C (second compound 0.316 µM, first compound 0.003 µM): 82.7%
- viability, T/C (second compound 0.316 µM, first compound 0.00949 µM): 87.9%
- viability, T/C (second compound 0.316 µM, first compound 0.03 µM): 81.8%
- viability, T/C (second compound 0.316 µM, first compound 0.0949 µM): 77.1%
- viability, T/C (second compound 0.316 µM, first compound 0.3 µM): 73.9%
- viability, T/C (second compound 1 µM, first compound 0.000949 µM): 67.4%
- viability, T/C (second compound 1 µM, first compound 0.003 µM): 71.4%
- viability, T/C (second compound 1 µM, first compound 0.00949 µM): 63.1%
- viability, T/C (second compound 1 µM, first compound 0.03 µM): 62.4%
- viability, T/C (second compound 1 µM, first compound 0.0949 µM): 55.5%
- viability, T/C (second compound 1 µM, first compound 0.3 µM): 49.9%
- viability, T/C (second compound 3.16 µM, first compound 0.000949 µM): 45.1%
- viability, T/C (second compound 3.16 µM, first compound 0.003 µM): 57.4%
- viability, T/C (second compound 3.16 µM, first compound 0.00949 µM): 52.2%
- viability, T/C (second compound 3.16 µM, first compound 0.03 µM): 48.2%
- viability, T/C (second compound 3.16 µM, first compound 0.0949 µM): 46.9%
- viability, T/C (second compound 3.16 µM, first compound 0.3 µM): 39.4%
- viability, T/C (second compound 10 µM, first compound 0.000949 µM): 41.6%
- viability, T/C (second compound 10 µM, first compound 0.003 µM): 42.7%
- viability, T/C (second compound 10 µM, first compound 0.00949 µM): 36.9%
- viability, T/C (second compound 10 µM, first compound 0.03 µM): 34%
- viability, T/C (second compound 10 µM, first compound 0.0949 µM): 34.5%
- viability, T/C (second compound 10 µM, first compound 0.3 µM): 23.2%

SMILES: CCCS(=O)(=O)Nc1ccc(F)c(C(=O)c2c[nH]c3ncc(-c4ccc(Cl)cc4)cc23)c1F + CCN1CCN(Cc2ccc(Nc3ncc(F)c(-c4cc(F)c5nc(C)n(C(C)C)c5c4)n3)nc2)CC1
- pIC50 (curve of first compound, second compound 0.01 µM): < 5.00
- pIC50 (curve of first compound, second compound 0.0316 µM): < 5.00
- pIC50 [1]: < 5.00
- pIC50 [2]: < 5.00
- pIC50 [3]: 5.09
- viability, T/C (second compound 0.01 µM, first compound 0.0316 µM): 97.8%
- viability, T/C (second compound 0.01 µM, first compound 0.1 µM): 106%
- viability, T/C (second compound 0.01 µM, first compound 0.316 µM): 97.5%
- viability, T/C (second compound 0.01 µM, first compound 1 µM): 90.1%
- viability, T/C (second compound 0.01 µM, first compound 3.16 µM): 93.4%
- viability, T/C (second compound 0.01 µM, first compound 10 µM): 84%
- viability, T/C (second compound 0.0316 µM, first compound 0.0316 µM): 89.6%
- viability, T/C (second compound 0.0316 µM, first compound 0.1 µM): 96.7%
- viability, T/C (second compound 0.0316 µM, first compound 0.316 µM): 91.7%
- viability, T/C (second compound 0.0316 µM, first compound 1 µM): 91.9%
- viability, T/C (second compound 0.0316 µM, first compound 3.16 µM): 85.3%
- viability, T/C (second compound 0.0316 µM, first compound 10 µM): 70.1%
- viability, T/C [6]: 101%
- viability, T/C [7]: 96.8%
- viability, T/C (second compound 0.1 µM, first compound 0.316 µM): 100%
- viability, T/C (second compound 0.1 µM, first compound 1 µM): 99.4%
- viability, T/C (second compound 0.1 µM, first compound 3.16 µM): 88.4%
- viability, T/C (second compound 0.1 µM, first compound 10 µM): 77.3%
- viability, T/C [8]: 98.3%
- viability, T/C [9]: 103%
- viability, T/C (second compound 0.316 µM, first compound 0.316 µM): 94%
- viability, T/C (second compound 0.316 µM, first compound 1 µM): 101%
- viability, T/C (second compound 0.316 µM, first compound 3.16 µM): 93.1%
- viability, T/C (second compound 0.316 µM, first compound 10 µM): 76.5%
- viability, T/C [10]: 101%
- viability, T/C [11]: 94.7%
- viability, T/C (second compound 1 µM, first compound 0.316 µM): 92.5%
- viability, T/C (second compound 1 µM, first compound 1 µM): 87.8%
- viability, T/C (second compound 1 µM, first compound 3.16 µM): 72.9%
- viability, T/C (second compound 1 µM, first compound 10 µM): 44.5%

SMILES: Cn1cnc2c(F)c(Nc3ccc(Br)cc3Cl)c(C(=O)NOCCO)cc21
- viability, T/C (compound 0.00949 µM): 97.5% and 94.6%
- viability, T/C (compound 0.03 µM): 102% and 98%
- viability, T/C (compound 0.0949 µM): 105% and 97.7%
- viability, T/C (compound 0.3 µM): 103% and 116%
- viability, T/C (compound 0.949 µM): 107% and 102%
- viability, T/C (compound 3 µM): 111% and 109%
- pIC50 (curve of compound): < 5.52

SMILES: Cn1ncnc1[C@H]1c2n[nH]c(=O)c3cc(F)cc(c23)N[C@@H]1c1ccc(F)cc1 + CC(C)NCC(C(=O)N1CCN(c2ncnc3c2C(C)CC3O)CC1)c1ccc(Cl)cc1
- pIC50 [1]: < 7.00
- pIC50 [2]: < 7.00
- pIC50 [3]: < 7.00
- pIC50 [4]: 7.69
- pIC50 [5]: > 9.50
- viability, T/C (second compound 0.1 µM, first compound 0.000316 µM): 98.7%
- viability, T/C (second compound 0.1 µM, first compound 0.001 µM): 92.8%
- viability, T/C (second compound 0.1 µM, first compound 0.00316 µM): 89.7%
- viability, T/C (second compound 0.1 µM, first compound 0.01 µM): 87.5%
- viability, T/C [6]: 79.8%
- viability, T/C [7]: 85.5%
- viability, T/C (second compound 0.316 µM, first compound 0.000316 µM): 74.4%
- viability, T/C (second compound 0.316 µM, first compound 0.001 µM): 79.9%
- viability, T/C (second compound 0.316 µM, first compound 0.00316 µM): 81.2%
- viability, T/C (second compound 0.316 µM, first compound 0.01 µM): 72.5%
- viability, T/C [8]: 71.8%
- viability, T/C [9]: 82.6%
- viability, T/C (second compound 1 µM, first compound 0.000316 µM): 67.9%
- viability, T/C (second compound 1 µM, first compound 0.001 µM): 75.6%
- viability, T/C (second compound 1 µM, first compound 0.00316 µM): 67.2%
- viability, T/C (second compound 1 µM, first compound 0.01 µM): 62.3%
- viability, T/C [10]: 63%
- viability, T/C [11]: 56.5%
- viability, T/C (second compound 3.16 µM, first compound 0.000316 µM): 59%
- viability, T/C (second compound 3.16 µM, first compound 0.001 µM): 56.3%
- viability, T/C (second compound 3.16 µM, first compound 0.00316 µM): 58.3%
- viability, T/C (second compound 3.16 µM, first compound 0.01 µM): 50.1%
- viability, T/C (second compound 3.16 µM, first compound 0.0316 µM): 47.4%
- viability, T/C (second compound 3.16 µM, first compound 0.1 µM): 46.4%
- viability, T/C (second compound 10 µM, first compound 0.000316 µM): 42.3%
- viability, T/C (second compound 10 µM, first compound 0.001 µM): 46.5%
- viability, T/C (second compound 10 µM, first compound 0.00316 µM): 39.9%
- viability, T/C (second compound 10 µM, first compound 0.01 µM): 36.1%
- viability, T/C (second compound 10 µM, first compound 0.0316 µM): 41.5%
- viability, T/C (second compound 10 µM, first compound 0.1 µM): 36.4%
